Measured values: patent US8211877B2, “Compounds, compositions and methods for preventing neurodegeneration in acute and chronic injuries in the central nervous system” (Neurotech Pharmaceuticals Co., Ltd., priority 2000, dated 2012)

Legend:
[1] = system: Mouse cortical cell cultures; assay: Fe2+-induced free radical neurotoxicity in cortical cell cultures (LDH release); assay type: cell-based; settings: for Protection against free radical neurotoxicity compared with parent compound: comparison with BAS or NBAS
Description: (§1) Primary cortical cell cultures from embryonic mice were prepared and used to examine neuroprotective action of compounds. Mouse cortical cell culture system has been extensively used to study mechanisms and pharmacological intervention of neuronal death in neurological diseases. In brief, mouse cerebral cortices were removed from brains of the 15 day-old-fetal mice, in accordance with a protocol approved by our institutional animal care committee. The neocortices were gently triturated and plated on 24 well plates (5 hemispheres/plate) precoated with 100 μg/ml poly-D-lysine and 4 μg/ml laminin. Plating media consist of Eagles minimal essential media (MEM, Earles salts, supplied glutamine-free) supplemented with 5% horse serum, 5% fetal bovine serum, 2 mM glutamine, and 21 mM glucose. Cultures were maintained at 37° C. in a humidified 5% CO2 atmosphere. After 7 days in vitro (DIV 7), cultures were shifted into a growth medium identical to the plating medium but lacking fetal serum. At DIV 7-9, 10 mM cytosine arabinofuranoside was included to halt overgrowth of glia. Mixed cultures of neurons and glia were then fed twice a week.
(§2) The percent neuronal death was normalized to the mean LDH value released 24 hr after continuous exposure 500 μM NMDA (=100) or a sham control (=0).
(§3) The neuroprotective action of 5-amino salicylic acid (AS) was examined in primary cortical cell cultures. Mouse cortical cell cultures (DIV 12-14) were exposed to 300μ M NMDA for 10 min (1a), continuously to 50μ M Fe^2+ (1b), or 300μ M Zn^2+ for 30 min (1c), alone or with inclusion of 10-300μ M 5-amino salicylic acid (AS). Neuronal death was analyzed 24 hr later by measuring levels of LDH released into the bathing medium, mean±SEM (n=9-12 (1a), n=4-8 (1b) or n=4 (1c) culture wells per condition), scaled to mean LDH efflux value 24 hr after sham wash (=0) and continuous exposure to 500μ M NMDA (=100).
(§4) Neuronal death was analyzed 24 hr later by measuring levels of LDH released into the medium, meant SEM (n=7-8 (2a), n=3-6 (2b), n=4 (2c), or n=4 (2d) culture wells per condition). FIG. 2. indicates significant difference from relevant control, at p<0.05 using ANOVA and Student-Neuman-Keuls test.
(§5) 5-(pentafluorobenzyl)amino salicylic acid (PBAS) was synthesized and tested against neuronal injuries. Mouse cortical cell cultures (DIV 12-14) were exposed to 300μ M NMDA for 10 min (8a), continuously to 50μ M Fe^2+ (8b) or 10 mM BSO (8c), or 300μ M Zn^2+ for 30 min (8d), alone or with inclusion of indicated doses of 5-(pentafluorobenzyl)amino salicylic acid (PBAS). Neuronal death was analyzed 24 hr later by measuring levels of LDH released into the medium, mean t SEM (n=11-16 (8a), n=3-6 (8b), n=4-11 (8c), or n=12 (8d) culture wells per condition).
(§6) Mouse cortical cell cultures (DIV 12-14) were exposed to 300μ M NMDA for 10 min (11a) or continuously to 50μ M Fe^2− (11b), alone or with inclusion of indicated doses of 5-(4-nitrobenzyl)-N-acetylamino-2-acetoxy ethylbenzoate (NNAAE). Neuronal death was analyzed 24 hr later by measuring levels of LDH released into the medium, mean±SEM (n=10-12 (11a), n=7-8 (11b), or n=4 (11c) culture wells per condition).
(§7) Mouse cortical cell cultures (DIV 12-14) were exposed to 300μ M NMDA for 10 min (15a) or continuously to 50μ M Fe^2− (15b), alone or with inclusion of indicated doses of 5-[3-(4-nitrophenyl)-n-propyl]aminosalicylic acid (NPPAA). Neuronal death was analyzed 24 hr later by measuring levels of LDH released into the medium, mean±SEM (n=4 (15a) or n=3-8 (15b) culture wells per condition).

[2] = Anti-oxidant effect: decrease in DPPH absorption at 517 nm; assay type: biochemical; settings: for A517 nm (DPPH): 100 uM DPPH in ethanol, 30 min, mean±SEM
Description: To examine anti-oxidant effect, DPPH (2,2-diphenyl-1-picryl-hydrazyl radical), a stable free radical, was dissolved in ethanol to make a 100μ M solution. A compound was reacted with DPPH or ethanol. After incubation for 30 min, relative decrease in DPPH absorption at 517 nm was measured by a spectrophotometer.
AS or trolox was reacted with 100 uM DPPH dissolved in ethanol for 30 min. Anti-oxidant property was analyzed by measuring changes in the level of DPPH at 517 nm, mean±SEM (n=3 test tubes per condition), after subtracting background value resulting from ethanol alone.
Anti-oxidant property was analyzed by measuring changes in DPPH at 517 nm, mean±SEM (n=3 test tubes per condition), after subtracting background value resulting from ethanol alone.
NBAS was reacted with 100 uM DPPH dissolved in ethanol for 30 min. Anti-oxidant property was analyzed by measuring changes in DPPH at 517 nm, mean±SEM (n=3 test tubes per condition), after subtracting background value resulting from ethanol alone.
PBAS was reacted with 100 uM DPPH dissolved in ethanol for 30 min. Anti-oxidant property was analyzed by measuring changes in DPPH at 517 nm, mean±SEM (n=3 test tubes per condition), after subtracting background value resulting from ethanol alone.
NBAS derivatives (100μ M for each) were reacted with 100 μM DPPH dissolved in ethanol for 30 min. Anti-oxidant property was analyzed by measuring changes in DPPH at 517 nm, meant SEM (n=3 test tubes per condition), after subtracting background value resulting from ethanol alone.

[3] = system: Mouse cortical cell cultures; assay: BSO-induced free radical neurotoxicity in cortical cell cultures (LDH release); assay type: cell-based; settings: 10 mM BSO continuously; compound 1 μM
Description: as §1, with “After 7 days in vitro (DIV 7), cultures were shifted into a growth medium identical to the plating medium but lacking fetal serum. At DIV 7-9, 10 mM cytosine arabinofuranoside was included to halt overgrowth of glia. Mixed cultures of neurons and glia were then fed twice a week.” left out
(§8) Neuronal death was analyzed 24 hr later by measuring levels of LDH released into the medium, meant SEM (n=7-8 (2a), n=3-6 (2b), n=4 (2c), or n=4 (2d) culture wells per condition). […]
5-(pentafluorobenzyl)amino salicylic acid (PBAS) was synthesized and tested against neuronal injuries. […] Neuronal death was analyzed 24 hr later by measuring levels of LDH released into the medium, mean t SEM (n=11-16 (8a), n=3-6 (8b), n=4-11 (8c), or n=12 (8d) culture wells per condition).

[4] = system: Mouse cortical cell cultures; assay: NMDA-induced neuronal death in cortical cell cultures (LDH release); assay type: cell-based; settings: 300 μM NMDA 10 min
Description: as §1, §2, §3, §4, §5, §6, §7

[5] = system: Mouse cortical cell cultures; assay: Zn2+ neurotoxicity in cortical cell cultures (LDH release); assay type: cell-based; settings: 300 μM Zn2+ 30 min
Description: as §1, with “Cultures were maintained at 37° C. in a humidified 5% CO2 atmosphere. After 7 days in vitro (DIV 7), cultures were shifted into a growth medium identical to the plating medium but lacking fetal serum. At DIV 7-9, 10 mM cytosine arabinofuranoside was included to halt overgrowth of glia. Mixed cultures of neurons and glia were then fed twice a week.” left out
The neuroprotective action of 5-amino salicylic acid (AS) was examined in primary cortical cell cultures. […] Neuronal death was analyzed 24 hr later by measuring levels of LDH released into the bathing medium, mean±SEM (n=9-12 (1a), n=4-8 (1b) or n=4 (1c) culture wells per condition), scaled to mean LDH efflux value 24 hr after sham wash (=0) and continuous exposure to 500μ M NMDA (=100).
as §8

[6] = 50 μM Fe2+ continuously, compound 10 μM
[7] = 50 μM Fe2+ continuously, compound 1 μM

## CCOC(=O)c1cc(N(Cc2ccc([N+](=O)[O-])cc2)C(C)=O)ccc1O [NNAHE, 5-(4-nitrobenzyl)-N-acetylamino-2-hydroxy ethylbenzoate]
[1]; [6]
  Effect on Fe2+-induced neuronal death, in words: blocked

## Cc1c(C)c2c(c(C)c1O)CCC(C)(C(=O)O)O2 (stereo not drawn) [Trolox, reference compound]
[2]; compound 3 μM
  A517 nm (DPPH): 1.08 ± 0.1
[2]; compound 10 μM
  A517 nm (DPPH): 0.89 ± 0.08
[2]; compound 30 μM
  A517 nm (DPPH): 0.39 ± 0.06
[2]; compound 100 μM
  A517 nm (DPPH): 0.05 ± 0.01
[2]; compound 300 μM
  A517 nm (DPPH): 0.03 ± 0.01

## O=C(O)c1cc(NCc2c(F)c(F)c(F)c(F)c2F)ccc1O [PBAS, 5-(pentafluorobenzyl)aminosalicylic acid]
[1]; [7]
  Effect on Fe2+-induced neuronal death, in words: significantly reduced
[1]; 50 μM Fe2+ continuously, compound 3 μM
  Effect on Fe2+-induced neuronal death, in words: near completely blocked
[3]
  Effect on BSO-induced neuronal death, in words: blocked
[2]; DPPH, a stable free radical
  Anti-oxidant property against DPPH, in words: reduced levels of DPPH
[2]; compound 1 μM
  A517 nm (DPPH): 1.07 ± 0.07
[2]; compound 3 μM
  A517 nm (DPPH): 1.01 ± 0.07
[2]; compound 10 μM
  A517 nm (DPPH): 0.71 ± 0.09
[2]; compound 30 μM
  A517 nm (DPPH): 0.21 ± 0.04
[2]; compound 100 μM
  A517 nm (DPPH): 0.15 ± 0.02
[2]; compound 300 μM
  A517 nm (DPPH): 0.16 ± 0.01
[4]; compound 300 μM, LDH 24 hr later
  Reduction of NMDA-induced neuronal death: ~65%
[4]; compound 100-1000 μM
  Effect on NMDA-induced neuronal death, in words: reduced NMDA-induced neuronal death in a dose-dependent manner
[4]; compound up to 1 mM
  Effect on NMDA-induced neuronal death, in words: completely blocked
[5]; compound 100-300 μM
  Effect on Zn2+-induced neuronal death, in words: attenuated

## CCOC(=O)c1cc(NCc2ccc([N+](=O)[O-])cc2)ccc1O [NAHE, 5-(4-nitrobenzyl)amino-2-hydroxy ethylbenzoate]
[1]; [6]
  Effect on Fe2+-induced neuronal death, in words: blocked

## O=C(O)c1cc(NCCc2ccc([N+](=O)[O-])cc2)ccc1O [NPAA, 5-[2-(4-nitrophenyl)-ethyl]aminosalicylic acid]
[1]; [7]
  Effect on Fe2+-induced neuronal death, in words: complete blockade
[1]
  Protection against free radical neurotoxicity compared with parent compound: more effective than NBAS
[2]; compound 100 μM
  A517 nm (DPPH): 0.09 ± 0.01
[4]; compound 300 μM
  Effect on NMDA-induced neuronal death, in words: slightly reduced

## O=C(O)c1cc(NCc2ccc([N+](=O)[O-])cc2)ccc1O [NBAS, 5-(4-nitrobenzyl)aminosalicylic acid]
[2]; compound 10 μM
  A517 nm (DPPH): 0.37 ± 0.1
[2]; compound 30 μM
  A517 nm (DPPH): 0.04 ± 0.01
[2]; compound 100 μM
  A517 nm (DPPH): 0.04 ± 0.00
[2]; compound 300 μM
  A517 nm (DPPH): 0.04 ± 0.00

## O=C(O)c1cc(NS(=O)(=O)c2ccc([N+](=O)[O-])cc2)ccc1O [NBSAA, 5-(4-nitrobenzenesulfonyl)aminosalicylic acid]
[1]
  Protection against free radical neurotoxicity compared with parent compound: weaker than NBAS
[2]; compound 100 μM
  A517 nm (DPPH): 0.15 ± 0.05
[4]; compound 300 μM
  Effect on NMDA-induced neuronal death, in words: markedly reduced
[4]; compound 30-300 μM
  Effect on NMDA-induced neuronal death, in words: attenuated NMDA neurotoxicity in a dose-dependent manner

## O=C(O)c1cc(NCCCc2ccc([N+](=O)[O-])cc2)ccc1O [NPPAA, 5-[3-(4-nitrophenyl)-n-propyl]aminosalicylic acid]
[1]; [7]
  Effect on Fe2+-induced neuronal death, in words: complete blockade
[1]
  Protection against free radical neurotoxicity compared with parent compound: more effective than NBAS
[2]; compound 100 μM
  A517 nm (DPPH): 0.09 ± 0.02
[4]; compound 300 μM
  Effect on NMDA-induced neuronal death, in words: slightly reduced

## O=C(Nc1ccc(O)c(C(=O)O)c1)c1ccc([N+](=O)[O-])cc1 [NBAA, 5-(4-nitrobenzoyl)aminosalicylic acid]
[1]
  Protection against free radical neurotoxicity compared with parent compound: weaker than NBAS
[2]; compound 100 μM
  A517 nm (DPPH): 0.42 ± 0.22
[4]; compound 30 μM
  Effect on NMDA-induced neuronal death, in words: significantly attenuated
[4]; compound 30-300 μM
  Effect on NMDA-induced neuronal death, in words: not further increased

## CCOC(=O)c1cc(N(Cc2ccc([N+](=O)[O-])cc2)C(C)=O)ccc1OC(C)=O [NNAAE, 5-(4-nitrobenzyl)-N-acetylamino-2-acetoxy ethylbenzoate]
[1]; [6]
  Effect on Fe2+-induced neuronal death, in words: blocked

## Nc1ccc(O)c(C(=O)O)c1 [AS, 5-amino salicylic acid, reference compound]
[1]; 50 μM Fe2+ continuously 24 hr, compound 10-100 μM
  Effect on Fe2+-induced neuronal death, in words: dose-dependently prevented
[4]; compound 10-300 μM, LDH 24 hr later
  Effect on NMDA-induced neuronal death, in words: did not attenuate
[5]; compound 10-300 μM during and post Zn2+ treatment
  Effect on Zn2+-induced neuronal death, in words: not reduced
